The results in this text go back to patent publication US20260271933A1 (priority 2023, published 2026).

Test [1] concerns Plasmopara viticola. The test is described as follows: whole plant or invertebrate. The format is in vivo. Conditions: foliar.
The subject of test [2] is Pythium ultimum. The test is described as follows: Pythium ultimum / liquid culture (seedling damping off). The format is cell-based. Conditions: Globisporangium ultimum, growth inhibition determined photometrically, compared to untreated control. On the procedure: Pythium ultimum/Liquid Culture (Seedling Damping Off)
Mycelia fragments and oospores of a newly grown liquid culture of the fungus are directly mixed into nutrient broth (PDB potato dextrose broth). After placing a (DMSO) solution of test compound into a microtiter plate (96-well format), the nutrient broth containing the fungal mycelia/spore mixture is added.
The test plates are incubated at 24° C. and the inhibition of growth is determined photometrically 2-3 days after application.

For test [3], the system named is Phytophthora infestans. The test is described as follows: whole plant or invertebrate. The test is classed as in vivo. Conditions: in Solanum lycopersicum, foliar, read-out: control of Phytophthora infestans.

`COC(=O)Nc1ccc(-c2cnc3c(C)cc(C(=O)N(C)c4cccc5c4OCC5)cn23)cn1` [Compound 1, methyl N-[5-[6-[2,3-dihydrobenzofuran-7-yl(methyl)carbamoyl]-8-methyl-imidazo[1,2-a]pyridin-3-yl]-2-pyridyl]carbamate] had a pest or weed control at 200 ppm in test [1] of no less than 80%. A word on the inhibition of growth: it is the share of the control response that was lost under treatment. As for `COC(=O)Nc1ccc(-c2cnc3ccc(C(=O)N(C)c4cccc5c4OCC5)cn23)cn1` [Compound 4, methyl N-[5-[6-[2,3-dihydrobenzofuran-7-yl(methyl)carbamoyl]imidazo[1,2-a]pyridin-3-yl]-2-pyridyl]carbamate], the pest or weed control at 200 ppm in test [1] is no less than 80%. This compound gave an inhibition of growth at 20 ppm in test [2] of no less than 80%. For `COC(=O)Nc1ccc(-c2cnc3c(C)cc(C(=O)N4CCOc5cc(F)ccc54)cn23)cn1` [Compound 5, methyl N-[5-[6-(7-fluoro-2,3-dihydro-1,4-benzoxazine-4-carbonyl)-8-methyl-imidazo[1,2-a]pyridin-3-yl]-2-pyridyl]carbamate], the pest or weed control at 200 ppm in test [3] is no less than 80%. For the same compound, the inhibition of growth at 20 ppm in test [2] is no less than 80%. `COC(=O)Nc1ccc(-c2cnc3ccc(C(=O)N4CC(C)Cc5ccccc54)cn23)cn1` (stereo not drawn) [Compound 8, methyl N-[5-[6-(3-methyl-3,4-dihydro-2H-quinoline-1-carbonyl)imidazo[1,2-a]pyridin-3-yl]-2-pyridyl]carbamate] had an inhibition of growth at 20 ppm in test [2] of no less than 80%. For the compound `COC(=O)Nc1ccc(-c2cnc3ccc(C(=O)N(C)c4cccc(F)c4OC)cn23)cn1` [Compound 12, methyl N-[5-[6-[(3-fluoro-2-methoxy-phenyl)-methyl-carbamoyl]imidazo[1,2-a]pyridin-3-yl]-2-pyridyl]carbamate], the pest or weed control at 200 ppm in test [3] is no less than 80%. The compound also gave an inhibition of growth at 20 ppm in test [2] of no less than 80%. Take `COC(=O)Nc1ccc(-c2cnc3ccc(C(=O)N4CCCc5c(F)cccc54)cn23)cn1` [Compound 13, methyl N-[5-[6-(5-fluoro-3,4-dihydro-2H-quinoline-1-carbonyl)imidazo[1,2-a]pyridin-3-yl]-2-pyridyl]carbamate]: the inhibition of growth at 20 ppm in test [2] was no less than 80%. On to `COC(=O)Nc1ccc(-c2cnc3ccc(C(=O)N4c5ccccc5CCC4C)cn23)cn1` (stereo not drawn) [Compound 14, methyl N-[5-[6-(2-methyl-3,4-dihydro-2H-quinoline-1-carbonyl)imidazo[1,2-a]pyridin-3-yl]-2-pyridyl]carbamate], for which the inhibition of growth at 20 ppm in test [2] is no less than 80%. For `COC(=O)Nc1ccc(-c2cnc3ccc(C(=O)N4CCCc5cc(Cl)cc(F)c54)cn23)cn1` [Compound 17, methyl N-[5-[6-(6-chloro-8-fluoro-3,4-dihydro-2H-quinoline-1-carbonyl)imidazo[1,2-a]pyridin-3-yl]-2-pyridyl]carbamate], in test [3], the pest or weed control at 200 ppm was no less than 80%. Besides, in test [2], the inhibition of growth at 20 ppm was no less than 80%.

On to `COC(=O)Nc1ccc(-c2cnc3ccc(C(=O)N4CC(O)Cc5cc(F)ccc54)cn23)cn1` (stereo not drawn) [Compound 24, methyl N-[5-[6-(6-fluoro-3-hydroxy-3,4-dihydro-2H-quinoline-1-carbonyl)imidazo[1,2-a]pyridin-3-yl]-2-pyridyl]carbamate], for which, in test [3], the pest or weed control at 200 ppm was no less than 80%. In test [2], this compound returned an inhibition of growth at 20 ppm of no less than 80%.

Turning to `COC(=O)Nc1ccc(-c2cnc3ccc(C(=O)N4CCCc5cc(F)c(F)cc54)cn23)cn1` [Compound 26, methyl N-[5-[6-(6,7-difluoro-3,4-dihydro-2H-quinoline-1-carbonyl)imidazo[1,2-a]pyridin-3-yl]-2-pyridyl]carbamate], in test [2], the inhibition of growth at 20 ppm was no less than 80%. For the compound `COC(=O)Nc1ccc(-c2cnc3ccc(C(=O)N4CCCc5c(C)cccc54)cn23)cn1` [Compound 27, methyl N-[5-[6-(5-methyl-3,4-dihydro-2H-quinoline-1-carbonyl)imidazo[1,2-a]pyridin-3-yl]-2-pyridyl]carbamate], the pest or weed control at 200 ppm in test [3] is no less than 80%. Further, the inhibition of growth at 20 ppm in test [2] is no less than 80%. Turning to `COC(=O)Nc1ccc(-c2cnc3ccc(C(=O)N4CCCc5c4ccc(C)c5F)cn23)cn1` [Compound 28, methyl N-[5-[6-(5-fluoro-6-methyl-3,4-dihydro-2H-quinoline-1-carbonyl)imidazo[1,2-a]pyridin-3-yl]-2-pyridyl]carbamate], the inhibition of growth at 20 ppm in test [2] is no less than 80%. Turning to `COC(=O)Nc1ccc(-c2cnc3ccc(C(=O)N4CC(OC)Cc5ccccc54)cn23)cn1` (stereo not drawn) [Compound 32, methyl N-[5-[6-(3-methoxy-3,4-dihydro-2H-quinoline-1-carbonyl)imidazo[1,2-a]pyridin-3-yl]-2-pyridyl]carbamate], in test [3], the pest or weed control at 200 ppm was no less than 80%. In test [2], the inhibition of growth at 20 ppm was no less than 80%. In test [1], `COC(=O)Nc1ccc(-c2cnc3ccc(C(=O)N(C)c4cccc(Cl)c4Cl)cn23)cn1` [Compound 39, methyl N-[5-[6-[(2,3-dichlorophenyl)-methyl-carbamoyl]imidazo[1,2-a]pyridin-3-yl]-2-pyridyl]carbamate] yielded a pest or weed control at 200 ppm of no less than 80%. Regarding `COC(=O)Nc1ccc(-c2cnc3ccc(C(=O)N4CC(O)Cc5ccccc54)cn23)cn1` (stereo not drawn) [Compound 43, methyl N-[5-[6-(3-hydroxy-3,4-dihydro-2H-quinoline-1-carbonyl)imidazo[1,2-a]pyridin-3-yl]-2-pyridyl]carbamate], the pest or weed control at 200 ppm in test [3] was no less than 80%. For the same compound, the inhibition of growth at 20 ppm in test [2] was no less than 80%. For `COC(=O)Nc1ccc(-c2cnc3ccc(C(=O)N(C)c4ccccc4C(=O)OC)cn23)cn1` [Compound 46, methyl 2-[[3-[6-(methoxycarbonylamino)-3-pyridyl]imidazo[1,2-a]pyridine-6-carbonyl]-methyl-amino]benzoate], the pest or weed control at 200 ppm in test [3] is no less than 80%. Besides, in test [2], the inhibition of growth at 20 ppm was no less than 80%.

Regarding `COC(=O)Nc1ccc(-c2cnc3ccc(C(=O)N(C)c4cc(Cl)ccc4C)cn23)cn1` [Compound 47, methyl N-[5-[6-[(5-chloro-2-methyl-phenyl)-methyl-carbamoyl]imidazo[1,2-a]pyridin-3-yl]-2-pyridyl]carbamate], the inhibition of growth at 20 ppm in test [2] is no less than 80%.

The compound `COC(=O)Nc1ccc(-c2cnc3ccc(C(=O)N4CCCc5cc(Cl)ccc54)cn23)cn1` [Compound 48, methyl N-[5-[6-(6-chloro-3,4-dihydro-2H-quinoline-1-carbonyl)imidazo[1,2-a]pyridin-3-yl]-2-pyridyl]carbamate] registered an inhibition of growth at 20 ppm in test [2] of no less than 80%. `COC(=O)Nc1ccc(-c2cnc3ccc(C(=O)N(C)c4ccc(Cl)cc4F)cn23)cn1` [Compound 53, methyl N-[5-[6-[(4-chloro-2-fluoro-phenyl)-methyl-carbamoyl]imidazo[1,2-a]pyridin-3-yl]-2-pyridyl]carbamate] displayed an inhibition of growth at 20 ppm in test [2] of no less than 80%. For `COC(=O)Nc1ccc(-c2cnc3ccc(C(=O)N(C)c4cc(F)ccc4F)cn23)cn1` [Compound 54, methyl N-[5-[6-[(2,5-difluorophenyl)-methyl-carbamoyl]imidazo[1,2-a]pyridin-3-yl]-2-pyridyl]carbamate], the pest or weed control at 200 ppm in test [3] was no less than 80%. Besides, the inhibition of growth at 20 ppm in test [2] is no less than 80%. In test [2], `COC(=O)Nc1ccc(-c2cnc3ccc(C(=O)N4CCCc5ccc(OC)cc54)cn23)cn1` [Compound 56, methyl N-[5-[6-(7-methoxy-3,4-dihydro-2H-quinoline-1-carbonyl)imidazo[1,2-a]pyridin-3-yl]-2-pyridyl]carbamate] came in with an inhibition of growth at 20 ppm of no less than 80%. `COC(=O)Nc1ccc(-c2cnc3ccc(C(=O)N4CCCc5c(OC(F)F)cccc54)cn23)cn1` [Compound 58, methyl N-[5-[6-[5-(difluoromethoxy)-3,4-dihydro-2H-quinoline-1-carbonyl]imidazo[1,2-a]pyridin-3-yl]-2-pyridyl]carbamate] registered an inhibition of growth at 20 ppm in test [2] of no less than 80%. Regarding `CCN(C(=O)c1ccc2ncc(-c3ccc(NC(=O)OC)nc3)n2c1)c1ccccc1C(=O)OC` [Compound 59, methyl 2-[ethyl-[3-[6-(methoxycarbonylamino)-3-pyridyl]imidazo[1,2-a]pyridine-6-carbonyl]amino]benzoate], in test [3], the pest or weed control at 200 ppm was no less than 80%.

Turning to `COC(=O)Nc1ccc(-c2cnc3ccc(C(=O)N(C)c4ccccc4OC)cn23)cn1` [Compound 60, methyl N-[5-[6-[(2-methoxyphenyl)-methyl-carbamoyl]imidazo[1,2-a]pyridin-3-yl]-2-pyridyl]carbamate], in test [2], the inhibition of growth at 20 ppm is no less than 80%. Turning to `COC(=O)Nc1ccc(-c2cnc3ccc(C(=O)N(C)c4cc(Cl)ccc4OC)cn23)cn1` [Compound 61, methyl N-[5-[6-[(5-chloro-2-methoxy-phenyl)-methyl-carbamoyl]imidazo[1,2-a]pyridin-3-yl]-2-pyridyl]carbamate], the inhibition of growth at 20 ppm in test [2] was no less than 80%. Consider `COC(=O)Nc1ccc(-c2cnc3ccc(C(=O)N4CCCc5c4ccc(F)c5OC)cn23)cn1` [Compound 62, methyl N-[5-[6-(6-fluoro-5-methoxy-3,4-dihydro-2H-quinoline-1-carbonyl)imidazo[1,2-a]pyridin-3-yl]-2-pyridyl]carbamate], for which, in test [3], the pest or weed control at 200 ppm was no less than 80%. In addition, the inhibition of growth at 20 ppm in test [2] is no less than 80%. Turning to `COC(=O)Nc1ccc(-c2cnc3ccc(C(=O)N4CCCc5cc(OC)c(F)cc54)cn23)cn1` [Compound 63, methyl N-[5-[6-(7-fluoro-6-methoxy-3,4-dihydro-2H-quinoline-1-carbonyl)imidazo[1,2-a]pyridin-3-yl]-2-pyridyl]carbamate], in test [2], the inhibition of growth at 20 ppm was no less than 80%. On to `COC(=O)Nc1ccc(-c2cnc3ccc(C(=O)N(C)c4ccc(Cl)cn4)cn23)cn1` [Compound 68, methyl N-[5-[6-[(5-chloro-2-pyridyl)-methyl-carbamoyl]imidazo[1,2-a]pyridin-3-yl]-2-pyridyl]carbamate], for which the inhibition of growth at 20 ppm in test [2] was no less than 80%.
